# Where two headings read alike, the source gives them in different places. Square brackets hold non-standard residues; d marks the D form. Peptide text beside a SMILES is read from it. * marks the point of attachment. Hexanoyl = CCCCCC(=O)*; Ahx = NCCCCCC(=O)O
# What was measured:
# [1] = test system: THP-1-differentiated macrophages; experiment: Pro-inflammatory cytokines in supernatants of LPS-challenged THP-1-differentiated macrophages; type: cell-based, human; set-up: key to Significant reduction in pro-inflammatory cytokine expression: IL-6 / Significant reduction in pro-inflammatory cytokine expression: TNF-α / Significant reduction in pro-inflammatory cytokine expression: IL-1β: “NS” indicates a non-significant reduction in the indicated cytokine; “+” indicates a p value <0.05 in Tukey post test; “++” indicates a p value <0.01 in Tukey post test; conditions: for Expression of IL-1β and TNF-α (result in words) / Expression of IL-6 (result in words): at at least one tested dose; for Significant reduction in pro-inflammatory cytokine expression: IL-1β / Significant reduction in pro-inflammatory cytokine expression: IL-6 / Significant reduction in pro-inflammatory cytokine expression: TNF-α: LPS 24 hrs
# Description: Neuroinflammation plays a crucial role in disease progression and is a complex phenomenon involving various cells that affect many extra- and intracellular signaling pathways and cytokine production. The macrophage of the brain (microglia) is the main agent of innate immunity in the CNS and performs various functions, including neuroprotection, in response to inflammatory signals. Activated microglia participate in developing neuroinflammation, responding to toxic exogenous substances (like LPS) or endogenous substances (like amyloid-beta). Here, THP-1 cells were used as an in-vitro cell model to evaluate mechanisms relevant to CNS inflammation. Differentiation with phorbol-12-myristate-13-acetate (PMA) causes THP-1 monocyte cells to acquire functional and morphological resemblance to macrophages. LPS interacts with THP-1 differentiated macrophage through the toll-like receptor 4, triggering the inflammatory response and stimulating pro-inflammatory cytokine release and eventually leading to cellular death. Test compounds were investigated for whether they have anti-inflammatory effects on LPS-challenged macrophage cultures. THP-1-differentiated macrophages were treated with test compounds for 20 minutes, followed by 24 hrs of LPS challenge. Culture supernatants were then collected to analyzed for the presence of pro-inflammatory cytokines: interleukin 1β (IL--1β), interleukin 6 (IL-6) and tumor necrosis factor α (TNF-α).
# Cytokine quantification in cell culture supernatants was accomplished by homogeneous time resolved fluorescence (HTRF) kits to assess levels of IL-1β (Human IL-1β kit, #62HIL1BPEG, Cisbio) and IL-6 (Human IL-6 kit, 62HILO6PET, Cisbio), and by ELISA (Human TNF-α ELISA kit, KHC3011, ThermoFisher) to determine the levels of TNF-α.
# Data analysis was performed via 1-way ANOVA with Tukey post-test compared to LPS treatment cultures using Prism statistical software (GraphPad). Tabular data indicates significance of reduction in culture supernatants for the indicated analyte at the indicated dose.
# [2] = test system: Rat primary cortical neuron cultures; conditions: LPS 24 h
# Description: (§1) To assess the neuroprotective effect of compound treatment against inflammatory insult, primary cultured cortical neurons were subjected to lipopolysaccharide (LPS) treatment for 24h along with various compound doses of compounds of Formula (I) or Compound A19. […] Rat primary cortical neuron cultures were grown at 37° C., 5% C02 in Complete Neurobasal Medium supplemented with B27/GDNF/BDNF containing 10% FBS until maturity. 25 μl of culture volume were seeded in a 384-well plate at 5,000 cells/well, and treated with 1 μM, 100 nM, 10 nM, 1 nM, or 0.1 nM of test compound for 15 minutes. Cells were then subjected to 1 μM LPS challenge for 24 hours. Luminescence measurements to assess relative levels of ATP were performed on an Envision plate reader (Perkin Elmer). Data for DMSO control were set to 100% cell viability, and each group (n=4) were averaged and presented as mean±SEM.
# [3] = test system: Rat primary cortical neuron cultures; experiment: Neuroprotection of rat cortical neurons against LPS challenge (Cell Titer-Glo); conditions: for Protection of primary neurons from LPS-stimulated inflammatory toxicity (in words): at at least one dose tested; for Significance of neuroprotection vs 1 uM LPS: LPS 24 h
# Description: as §1
# [4] = test system: Rat primary cortical neuron cultures; experiment: Neuroprotection of rat primary cortical neurons against neurotoxic insults (Cell Titer-Glo viability); type: cell-based
# Description: HGF/MET signaling activation is expected to protect cells, including neurons, from cell death. […] Hydrogen peroxide (H2O2) treatment produces toxic oxidative stress. Bacteria-derived lipopolysaccharide (LPS) treatment induces inflammatory cell death. Treatment with excess glutamate (Glut) produces excitotoxicity in neuron cultures. Treatment with 1-methyl-4-phenylpyridinium (MPP^+) causes cell death by inhibition of mitochondrial function.
# Cells were then subjected to individual conditional insults for 24 hours at the following concentrations: H2O2 at 1 uM, LPS at 1 uM, glutamate at 25 uM, or MPP+ at 500 uM. All treatments contained recombinant human HGF (R&D Systems) at a concentration of 5 ng/ml. MK-801 (Dizocilpine) is a pore blocker of the N-Methyl-D-aspartate (NMDA) receptor, a glutamate receptor, and was used as a positive control.
# Data was normalized to DMSO+HGF control set at 100% cell viability.
# Data are reported as statistical significance vs. insult control, with NS=not significant, +=p<0.05, ++=p<0.01, and +++=p<0.001.
structure (smiles),measurement,setting,value
CCC(C)CN1CC2N(Cc3ccc(C(F)(F)F)cc3)CCC(=O)N2[C@@H](C)C1=O (stereo partly drawn) [Compound 5a],Expression of IL-1β and TNF-α (result in words),[1],significantly reduced
same,Expression of IL-6 (result in words),[1],significantly reduced
same,Significant reduction in pro-inflammatory cytokine expression: IL-1β,[1]; dose 0.1 nM,++ (“++” indicates a p value <0.01 in Tukey post test)
same,Significant reduction in pro-inflammatory cytokine expression: IL-6,[1]; dose 0.1 nM,NS
same,Significant reduction in pro-inflammatory cytokine expression: TNF-α,[1]; dose 0.1 nM,NS
same,Significant reduction in pro-inflammatory cytokine expression: IL-1β,[1]; dose 10 nM,++ (“++” indicates a p value <0.01 in Tukey post test)
same,Significant reduction in pro-inflammatory cytokine expression: IL-6,[1]; dose 10 nM,+ (“+” indicates a p value <0.05 in Tukey post test)
same,Significant reduction in pro-inflammatory cytokine expression: TNF-α,[1]; dose 10 nM,NS
same,Significant reduction in pro-inflammatory cytokine expression: IL-1β,[1]; dose 1000 nM,++ (“++” indicates a p value <0.01 in Tukey post test)
same,Significant reduction in pro-inflammatory cytokine expression: IL-6,[1]; dose 1000 nM,++ (“++” indicates a p value <0.01 in Tukey post test)
same,Significant reduction in pro-inflammatory cytokine expression: TNF-α,[1]; dose 1000 nM,+ (“+” indicates a p value <0.05 in Tukey post test)
same,Significance of neuroprotection vs 1 uM LPS,[2]; dose 0.1 nM,+++ (+++ indicates p<0.001)
same,Significance of neuroprotection vs 1 uM LPS,[2]; dose 1 nM,+++ (+++ indicates p<0.001)
same,Significance of neuroprotection vs 1 uM LPS,[2]; dose 10 nM,+++ (+++ indicates p<0.001)
same,Significance of neuroprotection vs 1 uM LPS,[2]; dose 100 nM,+++ (+++ indicates p<0.001)
same,Significance of neuroprotection vs 1 uM LPS,[2]; dose 1 μM,+++ (+++ indicates p<0.001)
same,Protection of primary neurons from LPS-stimulated inflammatory toxicity (in words),[3],protected primary neurons from LPS-stimulated inflammatory toxicity
"CCCCCC(=O)N[C@@H](Cc1ccc(O)cc1)C(=O)N[C@H](C(=O)NCCCCCC(N)=O)[C@@H](C)CC [Compound A19 active metabolite, dihexa] (Hexanoyl-Tyr-Ile-[Ahx]-NH2)",Statistical significance vs. insult control (cell viability),"[4]; Glutamate (25 uM) insult, [Compound A19 active metabolite] 0.1 nM + HGF (5 ng/ml)",+ (+ = p < 0.05)
same,Statistical significance vs. insult control (cell viability),"[4]; Glutamate (25 uM) insult, [Compound A19 active metabolite] 1 nM + HGF (5 ng/ml)",++ (++ = p < 0.01)
same,Statistical significance vs. insult control (cell viability),"[4]; Glutamate (25 uM) insult, [Compound A19 active metabolite] 100 nM (second column headed 100 nM) + HGF (5 ng/ml)",+ (+ = p < 0.05)
same,Statistical significance vs. insult control (cell viability),"[4]; Glutamate (25 uM) insult, [Compound A19 active metabolite] 100 nM + HGF (5 ng/ml)",+ (+ = p < 0.05)
same,Statistical significance vs. insult control (cell viability),"[4]; H2O2 (1 uM) insult, [Compound A19 active metabolite] 0.1 nM + HGF (5 ng/ml)",+++ (+++ = p < 0.001)
same,Statistical significance vs. insult control (cell viability),"[4]; H2O2 (1 uM) insult, [Compound A19 active metabolite] 1 nM + HGF (5 ng/ml)",+++ (+++ = p < 0.001)
same,Statistical significance vs. insult control (cell viability),"[4]; H2O2 (1 uM) insult, [Compound A19 active metabolite] 100 nM (second column headed 100 nM) + HGF (5 ng/ml)",+++ (+++ = p < 0.001)
same,Statistical significance vs. insult control (cell viability),"[4]; H2O2 (1 uM) insult, [Compound A19 active metabolite] 100 nM + HGF (5 ng/ml)",+++ (+++ = p < 0.001)
same,Statistical significance vs. insult control (cell viability),"[4]; H2O2 (1 uM) insult, [Compound A19 active metabolite] 1 uM + HGF (5 ng/ml)",+++ (+++ = p < 0.001)
same,Neuroprotection against the cohort of insults (result in words),"[4]; H2O2, glutamate, LPS, MPP+, broad range of concentrations",effective neuroprotective treatment at a broad range of concentrations against the entire cohort of insults tested
same,Statistical significance vs. insult control (cell viability),"[4]; LPS (1 uM) insult, [Compound A19 active metabolite] 0.1 nM + HGF (5 ng/ml)",++ (++ = p < 0.01)
same,Statistical significance vs. insult control (cell viability),"[4]; LPS (1 uM) insult, [Compound A19 active metabolite] 1 nM + HGF (5 ng/ml)",++ (++ = p < 0.01)
same,Statistical significance vs. insult control (cell viability),"[4]; LPS (1 uM) insult, [Compound A19 active metabolite] 100 nM (second column headed 100 nM) + HGF (5 ng/ml)",+++ (+++ = p < 0.001)
same,Statistical significance vs. insult control (cell viability),"[4]; LPS (1 uM) insult, [Compound A19 active metabolite] 100 nM + HGF (5 ng/ml)",++ (++ = p < 0.01)
same,Statistical significance vs. insult control (cell viability),"[4]; LPS (1 uM) insult, [Compound A19 active metabolite] 1 uM + HGF (5 ng/ml)",++ (++ = p < 0.01)
same,Statistical significance vs. insult control (cell viability),"[4]; MPP+ (500 uM) insult, [Compound A19 active metabolite] 0.1 nM + HGF (5 ng/ml)",+++ (+++ = p < 0.001)
same,Statistical significance vs. insult control (cell viability),"[4]; MPP+ (500 uM) insult, [Compound A19 active metabolite] 1 nM + HGF (5 ng/ml)",+++ (+++ = p < 0.001)
same,Statistical significance vs. insult control (cell viability),"[4]; MPP+ (500 uM) insult, [Compound A19 active metabolite] 100 nM (second column headed 100 nM) + HGF (5 ng/ml)",+++ (+++ = p < 0.001)
same,Statistical significance vs. insult control (cell viability),"[4]; MPP+ (500 uM) insult, [Compound A19 active metabolite] 100 nM + HGF (5 ng/ml)",+++ (+++ = p < 0.001)
same,Statistical significance vs. insult control (cell viability),"[4]; MPP+ (500 uM) insult, [Compound A19 active metabolite] 1 uM + HGF (5 ng/ml)",+++ (+++ = p < 0.001)
same,Expression of IL-1β and TNF-α (result in words),[1],significantly reduced
same,Expression of IL-6 (result in words),[1],significantly reduced
same,Significant reduction in pro-inflammatory cytokine expression: IL-1β,[1]; dose 0.1 nM,NS
same,Significant reduction in pro-inflammatory cytokine expression: IL-6,[1]; dose 0.1 nM,NS
same,Significant reduction in pro-inflammatory cytokine expression: TNF-α,[1]; dose 0.1 nM,NS
same,Significant reduction in pro-inflammatory cytokine expression: IL-1β,[1]; dose 10 nM,++ (“++” indicates a p value <0.01 in Tukey post test)
same,Significant reduction in pro-inflammatory cytokine expression: IL-6,[1]; dose 10 nM,+ (“+” indicates a p value <0.05 in Tukey post test)
same,Significant reduction in pro-inflammatory cytokine expression: TNF-α,[1]; dose 10 nM,+ (“+” indicates a p value <0.05 in Tukey post test)
same,Significant reduction in pro-inflammatory cytokine expression: IL-1β,[1]; dose 1000 nM,+ (“+” indicates a p value <0.05 in Tukey post test)
same,Significant reduction in pro-inflammatory cytokine expression: IL-6,[1]; dose 1000 nM,++ (“++” indicates a p value <0.01 in Tukey post test)
same,Significant reduction in pro-inflammatory cytokine expression: TNF-α,[1]; dose 1000 nM,++ (“++” indicates a p value <0.01 in Tukey post test)
same,Protection of primary neurons from LPS-stimulated inflammatory toxicity (in words),[3],protected primary neurons from LPS-stimulated inflammatory toxicity
same,Significance of neuroprotection vs 1 uM LPS,[3]; dose 0.1 nM,+++ (+++ indicates p<0.001)
same,Significance of neuroprotection vs 1 uM LPS,[3]; dose 1 nM,++ (++ indicates p<0.01)
same,Significance of neuroprotection vs 1 uM LPS,[3]; dose 10 nM,+++ (+++ indicates p<0.001)
same,Significance of neuroprotection vs 1 uM LPS,[3]; dose 100 nM,++ (++ indicates p<0.01)
same,Significance of neuroprotection vs 1 uM LPS,[3]; dose 1 μM,++ (++ indicates p<0.01)

# From patent US20250275976A1, “Methods of Treating Neuroinflammatory Conditions” (Athira Pharma, Inc., priority 2022, published 2025)
